Measured values from US10222368B2 (priority 2012, dated 2019).

Experiments:
[1] = molecular target: FLNA pentapeptide VAKGL (SEQ ID NO: 1) (Homo sapiens, UniProt P21333); experiment: FITC-NLX-based FLNA screening assay; assay type: binding; conditions: for Percent Binding Inhibition (FITC-NLX binding to Bn-VAKGL): 10 nM FITC-NLX
mu opiate receptor (MOR) = molecular target: T1, mu opiate receptor (MOR) (Rattus norvegicus, UniProt P33535); experiment: MOR agonist activity using [35S]GTPγS binding assay in striatal membranes; assay type: biochemical; conditions: for MOR agonist activity, [35S]GTPγS binding, FLNA-binding compound as agonist at 0.1 μM / MOR agonist activity, [35S]GTPγS binding, 1 μM + BFNA / MOR agonist activity, [35S]GTPγS binding, FLNA-binding compound as agonist at 1 μM: striatal membranes; for MOR agonist activity, [35S]GTPγS binding, FLNA-binding compound as agonist at 0.1 μM / MOR agonist activity, [35S]GTPγS binding, FLNA-binding compound as agonist at 1 μM: Series C-2; for MOR agonist activity, [35S]GTPγS binding, 1 μM + BFNA: 1 μM compound + 1 μM β-FNA (MOR antagonist); for MOR agonist activity ([35S]GTPγS binding to Gαo), preliminary study: average of two runs
T1 construct: from tissue; host or cells: striatal tissue (membrane preparation)
Method: To assess the mu opiate receptor (MOR) agonist activity of positive compounds from the FLNA screening, compounds were tested in a [^35S]GTPγS binding assay using striatal membranes. […] This assay measures a functional consequence of receptor occupancy at one of the earliest receptor-mediated events. The assay permits for traditional pharmacological parameters of potency, efficacy and antagonist affinity, with the advantage that agonist measures are not subjected to amplification or other modulation that may occur when analyzing parameters further downstream of the receptor.
Thus, striatal tissue was homogenized in 10 volumes of ice cold 25 mM HEPES buffer, pH 7.4, which contained 1 mM EGTA, 100 mM sucrose, 50 μg/ml leupeptin, 0.04 mM PMSF, 2 μg/ml soybean trypsin inhibitor and 0.2% 2-mercaptoethanol. The homogenates were centrifuged at 800×g for 5 minutes and the supernatants were centrifuged at 49,000×g for 20 minutes.
The resultant striatal membrane preparation (200 μg) was admixed and maintained (incubated) at 30° C. for 5 minutes in reaction buffer as above that additionally contained 1 mM MgCl2 and 0.5 nM [^35S]GTPγS (0.1 μCi/assay, PerkinElmer Life and Analytical Sciences) in a total volume of 250 μl and continued for 5 minutes in the absence or presence of 0.1-10 μM of an assayed compound of interest. The reaction was terminated by dilution with 750 μl of ice-cold reaction buffer that contained 20 mM MgCl2 and 1 mM EGTA and immediate centrifugation at 16,000×g for 5 minutes.
Normal rabbit serum (1 μl) was added to 1 ml of lysate and incubated at 25° C. for 30 minutes. Nonspecific immune complexes were removed by incubation with 25 μl of protein A/G-conjugated agarose beads at 25° C. for 30 minutes followed by centrifugation at 5,000×g at 4° C. for 5 minutes. The supernatant was divided and separately incubated at 25° C. for 30 minutes with antibodies raised against Gαo proteins (1:1,000 dilutions).
The immunocomplexes so formed were collected by incubation at 25° C. for 30 minutes with 40 μl of agarose-conjugated protein A/G beads and centrifugation at 5,000×g at 4° C. for 5 minutes. The pellet was washed and suspended in buffer containing 50 mM Tris-HCl, pH 8.0, and 1% NP-40. The radioactivity in the suspension was determined by liquid scintillation spectrometry.

[2] = 1 μM compound, relative to DAMGO
[3] = Series C-1, 0.1 μM compound relative to DAMGO (0.1 μM)

T1 sequence (P33535 whole entry): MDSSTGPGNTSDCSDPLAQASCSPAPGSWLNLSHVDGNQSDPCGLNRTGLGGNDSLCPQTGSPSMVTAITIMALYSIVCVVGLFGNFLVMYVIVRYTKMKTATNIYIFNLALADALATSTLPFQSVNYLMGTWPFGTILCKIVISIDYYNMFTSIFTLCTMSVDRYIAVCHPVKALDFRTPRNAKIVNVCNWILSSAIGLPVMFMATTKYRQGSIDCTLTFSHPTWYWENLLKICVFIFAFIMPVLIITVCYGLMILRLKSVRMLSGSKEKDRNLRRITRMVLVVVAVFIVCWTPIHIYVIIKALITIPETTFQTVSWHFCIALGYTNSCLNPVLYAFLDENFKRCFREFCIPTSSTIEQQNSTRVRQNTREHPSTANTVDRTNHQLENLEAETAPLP

| SMILES | MOR agonist activity, [35S]GTPγS binding, FLNA-binding compound as agonist at 0.1 μM (mu opiate receptor (MOR); 0.1 μM compound) | MOR agonist activity, [35S]GTPγS binding, 1 μM + BFNA (mu opiate receptor (MOR)) | MOR agonist activity, [35S]GTPγS binding, FLNA-binding compound as agonist at 1 μM (mu opiate receptor (MOR); 1 μM compound) | other results |
| --- | --- | --- | --- | --- |
| O=C1CNC2(CCN(S(=O)(=O)c3ccc(O)cc3)CC2)N1Cc1ccccc1 [Compound C0148M] | – | – | – | Percent Binding Inhibition (FITC-NLX binding to Bn-VAKGL) ([1]; 0.01 μM FLNA-binding compound): 46.2%; Percent Binding Inhibition (FITC-NLX binding to Bn-VAKGL) ([1]; 0.1 μM FLNA-binding compound): 52.0%; Percent Binding Inhibition (FITC-NLX binding to Bn-VAKGL) ([1]; 1 μM FLNA-binding compound): 57.0% |
| CO[C@]12CC[C@@]3(C[C@@H]1C(C)(O)C(C)(C)C)[C@H]1Cc4ccc(O)c5c4[C@@]3(CCN1CC1CC1)[C@H]2O5 (stereo partly shown) [Buprenorphine, reference compound] | – | – | – | Binding to the FLNA pentapeptide of SEQ ID NO: 1 (in words) [1]: bind well |
| COc1ccc(S(=O)(=O)N2CCOC23CCN(C)CC3)cc1 [Compound C0088M] | 276.3% | 177.1% | 355.3% | – |
| O=C1CN(Cc2ccccc2)C2(CCN(CC3CC3)CC2)N1 [Compound C0125M] | 168.6% | 159.7% | 195.2% | – |
| CN1CC[C@]23c4c5ccc(O)c4O[C@H]2[C@@H](O)C=C[C@H]3[C@H]1C5 [morphine, reference compound] | – | – | – | Binding to the FLNA pentapeptide of SEQ ID NO: 1 (in words) [1]: do not bind |
| CC(=O)c1ccc(S(=O)(=O)N2CC(CN(C)C)OC23CCN(C)CC3)cc1 (stereo not shown) [Compound C0108M] | 205.6% | 76.9% | 258.5% | – |
| COc1ccc(NC(=O)N2CCC3(CC2)NCCO3)cc1 [Compound C0151M-2] | 346.8% | 212.8% | 397.6% | – |
| COc1ccc(S(=O)(=O)N2CCC3(CC2)NCCC(=O)N3)cc1 [Compound C0142M] | 143.7% | 98.7% | 192.5% | – |
| CC(=O)c1ccc(S(=O)(=O)N2C(Cc3c[nH]cn3)C(=O)NC23CCNCC3)cc1 (stereo not shown) [Compound C0119M] | 105.7% | 35.1% | 167.8% | % DAMGO (1 μM) (mu opiate receptor (MOR); [2]): 83.0% |
| O=[N+]([O-])c1ccc(S(=O)(=O)N2CCC3(CC2)NCCCO3)cc1 [Compound C0045] | 149.2% | 105.3% | 238.8% | – |
| COc1ccc(S(=O)(=O)N2CCOC23CCCNC3)cc1 (stereo not shown) [Compound C0145M-3] | 193.0% | 87.0% | 289.2% | – |
| O=[N+]([O-])c1ccc(S(=O)(=O)N2CCC3(CC2)NCCS3)cc1 [Compound C0044] | 173.7% | 59.1% | 280.1% | – |
| COc1ccc(S(=O)(=O)N2CCOC23CCN(C(C)C)CC3)cc1 [Compound C0133M] | 139.4% | 72.4% | 214.8% | – |
| O=[N+]([O-])c1ccc(S(=O)(=O)N2CCC3(CC2)NCCO3)cc1 [Compound C0040] | 145.8% | 90.4% | 308.3% | – |
| COc1ccc(S(=O)(=O)N2CCC3(NCCO3)C3CCCCC32)cc1 (stereo not shown) [Compound C0144M-2] | 186.3% | 125.9% | 295.9% | – |
| CC(=O)c1ccc(S(=O)(=O)N2CCOC23CCNCC3)cc1 [Compound C0046] | 286.2% | 156.8% | 492.9% | – |
| CC(=O)c1ccc(S(=O)(=O)N2CCOC23CCN(C)CC3)cc1 [Compound C0093M] | 140.0% | 44.0% | 211.8% | – |
| C=CCN1CCC2(CC1)OCCN2S(=O)(=O)c1ccc(OC)cc1 [Compound C0091M] | 207.9% | 80.8% | 274.4% | – |
| O=S(=O)(c1cccc2cccnc12)N1CCC2(CC1)OCCN2S(=O)(=O)c1cccc2cccnc12 [Compound C0143M] | 81.0% | 86.5% | 193.3% | – |
| Cc1ccc(S(=O)(=O)N2CCOC23CCN(CC2CC2)CC3)cc1 [Compound C0134M] | 158.5% | 46.6% | 207.3% | MOR agonist activity ([35S]GTPγS binding to Gαo), preliminary study (mu opiate receptor (MOR); 0.1 μM compound as agonist): 150.7%; % DAMGO (0.1 μM) (mu opiate receptor (MOR); 0.1 μM compound, relative to DAMGO): 94.6%; MOR agonist activity ([35S]GTPγS binding to Gαo), preliminary study (mu opiate receptor (MOR); 1 μM + βNFA): 53.2%; % DAMGO + BFNA (mu opiate receptor (MOR); 1 μM compound + BFNA, relative to DAMGO + BFNA): 98.1%; MOR agonist activity ([35S]GTPγS binding to Gαo), preliminary study (mu opiate receptor (MOR); 1 μM compound as agonist): 224.0%; % DAMGO (1 μM) (mu opiate receptor (MOR); [2]): 93.3% |
| CC(=O)c1ccc(S(=O)(=O)N2CC(CN(C)C)OC23CCNCC3)cc1 (stereo not shown) [Compound C0118M] | 166.2% | 79.2% | 261.5% | – |
| C[C@@H](NC(=O)[C@@H](N)Cc1ccc(O)cc1)C(=O)NCC(=O)N(C)[C@@H](Cc1ccccc1)C(=O)NCCO [DAMGO, [D-Ala2, N-MePhe4, Gly-ol]-enkephalin, reference compound] | 168.5% | 53.2% | 266.1% | MOR agonist activity ([35S]GTPγS binding to Gαo), preliminary study (mu opiate receptor (MOR); 0.1 μM compound as agonist): 144.7%; MOR agonist activity ([35S]GTPγS binding to Gαo), preliminary study (mu opiate receptor (MOR); 1 μM + βNFA): 56.8%; MOR agonist activity ([35S]GTPγS binding to Gαo), preliminary study (mu opiate receptor (MOR); 1 μM compound as agonist): 233.4% |
| CCN1CCC2(CC1)OCCN2S(=O)(=O)c1ccc(C(C)=O)cc1 [Compound C0094M] | 172.5% | 115.3% | 263.5% | – |
| CC(=O)c1ccc(S(=O)(=O)N2CC(=O)NC23CCNCC3)cc1 [Compound C0086M] | 206.8% | 152.3% | 265.3% | – |
| COc1ccc(S(=O)(=O)N2CCOC23CCN(C(=O)OC(C)(C)C)CC3)cc1 [Compound C0043] | 175.4% | 83.3% | 242.6% | – |
| CC(=O)Nc1ccc(S(=O)(=O)N2CCC3(CC2)OCCN3S(=O)(=O)c2ccc(NC(C)=O)cc2)cc1 [Compound C0013] | – | – | – | % DAMGO (0.1 μM) (mu opiate receptor (MOR); [3]): 91.0% |
| CS(=O)(=O)c1ccc(S(=O)(=O)N2CCOC23CCNCC3)cc1 [Compound C0116M] | 258.4% | 152.0% | 302.8% | – |
| CC(=O)c1ccc(C(=O)N2CCC3(CC2)OCCN3S(=O)(=O)c2ccc(C(C)=O)cc2)cc1 [Compound C0052] | – | – | – | % DAMGO + BFNA (mu opiate receptor (MOR); Series C-1, 1 μM compound + BFNA relative to DAMGO + BFNA): 97.0% |
| CCCCc1ccc(S(=O)(=O)N2CCC3(CC2)OCCN3S(=O)(=O)c2ccc(CCCC)cc2)cc1 [Compound C0030] | – | – | – | % DAMGO (0.1 μM) (mu opiate receptor (MOR); [3]): 96.0%; % DAMGO (1 μM) (mu opiate receptor (MOR); Series C-1, 1 μM compound relative to DAMGO (1 μM)): 98.0% |
